Reference: ChEMBL document CHEMBL1777801, “3-Oxo-2-piperazinyl acetamides as potent bradykinin B1 receptor antagonists for the treatment of pain and inflammation” (Bioorg Med Chem Lett, 2011)
One block for each compound: values may come before it.

Legend:
[1] = in vivo; conditions: Sprague-Dawley, rat, iv, 1 mg/kg
[2] = in vivo; conditions: Sprague-Dawley, rat, iv, 1 mg/kg; remark: listed apart in the source
[3] = in vivo; conditions: Sprague-Dawley, rat, po, 10 mg/kg
[4] = Half life in mouse at 1 mg/kg, iv; assay type: ADME, organism-based; set-up: dose 1 mg/kg, route intravenous; conditions: in vivo
[5] = Volume of distribution at steady state in rhesus monkey at 1 mg/kg, iv; assay type: ADME, organism-based, Macaca mulatta; set-up: dose 1 mg/kg, route intravenous; conditions: in vivo, read-out: Vdss
[6] = Clearance in rabbit at 1 mg/kg, iv; assay type: ADME, organism-based, Oryctolagus cuniculus; set-up: dose 1 mg/kg, route intravenous; conditions: in vivo
[7] = Half life in cynomolgus monkey at 1 mg/kg, iv; assay type: ADME, organism-based, Macaca fascicularis; set-up: dose 1 mg/kg, route intravenous; conditions: in vivo
[8] = Clearance in dog at 1 mg/kg, iv; assay type: ADME, organism-based, Canis lupus familiaris; set-up: dose 1 mg/kg, route intravenous; conditions: in vivo
[9] = Oral bioavailability in rabbit at 5 mg/kg; assay type: ADME, organism-based, Oryctolagus cuniculus; conditions: in vivo
[10] = Volume of distribution at steady state in dog at 1 mg/kg, iv; assay type: ADME, organism-based, Canis lupus familiaris; set-up: dose 1 mg/kg, route intravenous; conditions: in vivo, read-out: Vdss
[11] = Volume of distribution at steady state in cynomolgus monkey at 1 mg/kg, iv; assay type: ADME, organism-based, Macaca fascicularis; set-up: dose 1 mg/kg, route intravenous; conditions: in vivo, read-out: Vdss
[12] = Oral bioavailability in rhesus monkey at 5 mg/kg; assay type: ADME, organism-based, Macaca mulatta; conditions: in vivo
[13] = Half life in dog at 1 mg/kg, iv; assay type: ADME, organism-based, Canis lupus familiaris; set-up: dose 1 mg/kg, route intravenous; conditions: in vivo
[14] = Volume of distribution at steady state in rabbit at 1 mg/kg, iv; assay type: ADME, organism-based, Oryctolagus cuniculus; set-up: dose 1 mg/kg, route intravenous; conditions: in vivo, read-out: Vdss
[15] = Clearance in rhesus monkey at 1 mg/kg, iv; assay type: ADME, organism-based, Macaca mulatta; set-up: dose 1 mg/kg, route intravenous; conditions: in vivo
[16] = Half life in Sprague-Dawley rat at 1 mg/kg, iv administered as bolus dose; assay type: ADME, organism-based; set-up: dose 1 mg/kg, route intravenous; conditions: in vivo
[17] = Oral bioavailability in cynomolgus monkey at 5 mg/kg; assay type: ADME, organism-based, Macaca fascicularis; conditions: in vivo
[18] = Oral bioavailability in dog at 3 mg/kg; assay type: ADME, organism-based, Canis lupus familiaris; conditions: in vivo
[19] = Clearance in mouse at 1 mg/kg, iv; assay type: ADME, organism-based; set-up: dose 1 mg/kg, route intravenous; conditions: in vivo
[20] = Half life in rhesus monkey at 1 mg/kg, iv; assay type: ADME, organism-based, Macaca mulatta; set-up: dose 1 mg/kg, route intravenous; conditions: in vivo
[21] = Volume of distribution at steady state in mouse at 1 mg/kg, iv; assay type: ADME, organism-based; set-up: dose 1 mg/kg, route intravenous; conditions: in vivo, read-out: Vdss
[22] = Clearance in cynomolgus monkey at 1 mg/kg, iv; assay type: ADME, organism-based, Macaca fascicularis; set-up: dose 1 mg/kg, route intravenous; conditions: in vivo
[23] = Oral bioavailability in mouse at 10 mg/kg; assay type: ADME, organism-based; conditions: in vivo
[24] = Half life in rabbit at 1 mg/kg, iv; assay type: ADME, organism-based, Oryctolagus cuniculus; set-up: dose 1 mg/kg, route intravenous; conditions: in vivo

SMILES: Cc1ccc(S(=O)(=O)N2CCNC(=O)[C@H]2CC(=O)N[C@@H]2CCCc3cc(CNCC(C)(C)C)ccc32)cc1
Vd [1]: 3.4 L/kg | clearance [2]: 30 mL/min/kg | bioavailability [3]: 16%

Vd [1]: 9.9 L/kg | clearance [2]: 90 mL/min/kg
SMILES: O=C(C[C@@H]1C(=O)NCCN1S(=O)(=O)c1ccccc1)N[C@@H]1CCCc2cc(CN3CCCCC3)ccc21

half-life [4]: 1.4 h | Vd [5]: 5.9 L/kg | Vd [1]: 9.3 L/kg | clearance [6]: 53.3 mL/min/kg | half-life [7]: 5.6 h | clearance [8]: 63.3 mL/min/kg | bioavailability [9]: 5% | Vd [10]: 16.2 L/kg | Vd [11]: 1.6 L/kg | bioavailability [12]: 23% | half-life [13]: 4.6 h | Vd [14]: 6.4 L/kg | clearance [15]: 30 mL/min/kg | half-life [16]: 4.8 h | bioavailability [17]: 17% | clearance [2]: 123 mL/min/kg | bioavailability [3]: 6% | bioavailability [18]: 24% | clearance [19]: 133 mL/min/kg | half-life [20]: 3.2 h | Vd [21]: 6 L/kg | clearance [22]: 10 mL/min/kg | bioavailability [23]: 6% | half-life [24]: 2.4 h
SMILES: Cc1ccc(S(=O)(=O)N2CCNC(=O)[C@H]2CC(=O)N[C@@H]2CCCc3cc(CN4CCCCC4)ccc32)cc1

Vd [1]: 11.9 L/kg | clearance [2]: 112 mL/min/kg | bioavailability [3]: 19%
SMILES: O=C(C[C@@H]1C(=O)NCCN1S(=O)(=O)c1ccc(Cl)cc1)N[C@@H]1CCCc2cc(CN3CCCCC3)ccc21

SMILES: Cc1ccc(S(=O)(=O)N2CCNC(=O)[C@H]2CC(=O)N[C@@H]2CCCc3cc(CNC(C)(C)C)ccc32)cc1
Vd [1]: 8.34 L/kg | clearance [2]: 56.7 mL/min/kg | bioavailability [3]: 0.3%
